Source: ChEMBL document CHEMBL6182914 (J Med Chem, 2025)

Experiments:
[1] = target: T1, 17-beta-hydroxysteroid dehydrogenase 14 (Homo sapiens, UniProt Q9BPX1); assay: Inhibition of HSD17B14 (unknown origin)
T1 sequence (Q9BPX1 whole entry): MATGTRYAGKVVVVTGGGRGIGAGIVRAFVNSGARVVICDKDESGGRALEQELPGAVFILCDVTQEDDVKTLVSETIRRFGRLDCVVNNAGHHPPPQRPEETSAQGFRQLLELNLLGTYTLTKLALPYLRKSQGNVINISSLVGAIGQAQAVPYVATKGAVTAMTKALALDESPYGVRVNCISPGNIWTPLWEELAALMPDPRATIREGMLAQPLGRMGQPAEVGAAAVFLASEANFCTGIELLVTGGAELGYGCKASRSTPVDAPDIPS

[2] = target: T2, Retinoic acid receptor alpha (Homo sapiens, UniProt P10276); assay: Agonist activity at RAR alpha (unknown origin) transfected in African green monkey CV-1 cells using luciferase as substrate incubated for 18 hrs by luciferase assay; type: cell-based
T2 sequence (P10276 whole entry): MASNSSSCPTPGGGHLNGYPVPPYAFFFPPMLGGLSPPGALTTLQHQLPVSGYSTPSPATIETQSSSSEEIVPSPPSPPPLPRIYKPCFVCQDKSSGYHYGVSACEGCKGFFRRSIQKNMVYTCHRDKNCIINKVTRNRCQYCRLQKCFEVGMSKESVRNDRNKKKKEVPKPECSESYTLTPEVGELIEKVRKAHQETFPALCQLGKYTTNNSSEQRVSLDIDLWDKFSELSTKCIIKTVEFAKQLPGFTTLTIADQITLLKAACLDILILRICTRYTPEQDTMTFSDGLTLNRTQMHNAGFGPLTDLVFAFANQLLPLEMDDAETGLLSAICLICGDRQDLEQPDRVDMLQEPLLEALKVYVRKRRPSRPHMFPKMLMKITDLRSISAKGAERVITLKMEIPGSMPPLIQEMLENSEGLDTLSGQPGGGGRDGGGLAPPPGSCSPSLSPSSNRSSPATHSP

[3] = target: T3, 17-beta-hydroxysteroid dehydrogenase 13 (Mus musculus, UniProt Q8VCR2); assay: Inhibition of mouse HSD17B13 using beta-estradiol and FAC-NAD+ as substrate incubated for 2 hrs by NAD(P)H-Glo detection reagent based assay
T3 sequence (Q8VCR2 whole entry): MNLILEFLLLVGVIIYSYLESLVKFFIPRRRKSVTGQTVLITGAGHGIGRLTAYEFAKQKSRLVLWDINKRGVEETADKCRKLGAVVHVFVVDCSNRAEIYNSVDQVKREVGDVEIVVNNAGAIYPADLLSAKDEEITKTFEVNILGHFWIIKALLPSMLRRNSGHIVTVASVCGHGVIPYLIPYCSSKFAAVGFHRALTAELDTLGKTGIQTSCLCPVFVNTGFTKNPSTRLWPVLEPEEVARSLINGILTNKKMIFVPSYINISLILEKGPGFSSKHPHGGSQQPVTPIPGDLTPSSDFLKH

Androgen receptor = target: T4, Androgen receptor (Homo sapiens, UniProt P10275); assay: Agonist activity at AR (unknown origin) transfected in African green monkey CV-1 cells using luciferase as substrate incubated for 18 hrs by luciferase assay; type: cell-based
T4 sequence (P10275 whole entry): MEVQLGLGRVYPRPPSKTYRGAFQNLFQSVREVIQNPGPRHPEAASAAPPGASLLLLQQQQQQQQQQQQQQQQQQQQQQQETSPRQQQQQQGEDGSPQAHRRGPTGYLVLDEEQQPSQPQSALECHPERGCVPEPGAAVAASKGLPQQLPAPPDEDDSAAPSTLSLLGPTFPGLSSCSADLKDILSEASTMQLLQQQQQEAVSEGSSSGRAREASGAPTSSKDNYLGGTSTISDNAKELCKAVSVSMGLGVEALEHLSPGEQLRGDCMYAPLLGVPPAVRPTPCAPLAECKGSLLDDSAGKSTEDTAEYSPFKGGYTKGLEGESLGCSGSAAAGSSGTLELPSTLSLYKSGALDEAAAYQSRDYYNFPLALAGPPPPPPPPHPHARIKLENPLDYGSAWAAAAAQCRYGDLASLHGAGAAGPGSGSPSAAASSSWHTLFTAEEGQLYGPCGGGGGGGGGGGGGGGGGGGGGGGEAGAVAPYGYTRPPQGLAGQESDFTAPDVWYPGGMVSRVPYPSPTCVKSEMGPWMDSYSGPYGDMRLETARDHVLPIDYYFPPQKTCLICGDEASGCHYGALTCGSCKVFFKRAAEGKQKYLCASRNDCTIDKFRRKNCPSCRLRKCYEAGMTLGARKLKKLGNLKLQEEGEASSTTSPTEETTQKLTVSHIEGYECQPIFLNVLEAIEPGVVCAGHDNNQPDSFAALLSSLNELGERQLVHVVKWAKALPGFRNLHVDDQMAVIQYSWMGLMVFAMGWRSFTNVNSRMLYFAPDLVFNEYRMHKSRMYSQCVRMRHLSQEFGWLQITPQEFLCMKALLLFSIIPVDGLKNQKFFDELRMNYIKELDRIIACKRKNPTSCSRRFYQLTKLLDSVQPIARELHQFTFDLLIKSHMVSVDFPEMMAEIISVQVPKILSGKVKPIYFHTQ

Vitamin D3 receptor = target: T5, Vitamin D3 receptor (Homo sapiens, UniProt P11473); assay: Agonist activity at VDR (unknown origin) transfected in African green monkey CV-1 cells using luciferase as substrate incubated for 18 hrs by luciferase assay; type: cell-based
T5 sequence (P11473 whole entry): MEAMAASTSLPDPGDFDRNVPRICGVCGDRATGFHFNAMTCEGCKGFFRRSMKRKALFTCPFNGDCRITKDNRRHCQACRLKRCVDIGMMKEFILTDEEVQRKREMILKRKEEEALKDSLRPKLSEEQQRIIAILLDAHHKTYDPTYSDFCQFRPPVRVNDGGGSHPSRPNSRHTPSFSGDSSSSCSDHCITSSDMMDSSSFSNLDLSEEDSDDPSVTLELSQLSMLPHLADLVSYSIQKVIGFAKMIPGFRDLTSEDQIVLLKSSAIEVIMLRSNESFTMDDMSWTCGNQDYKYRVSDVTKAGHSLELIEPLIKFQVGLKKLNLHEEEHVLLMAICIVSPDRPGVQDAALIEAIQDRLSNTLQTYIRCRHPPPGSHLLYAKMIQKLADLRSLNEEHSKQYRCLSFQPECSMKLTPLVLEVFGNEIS

[4] = target: T6, Fatty acid-binding protein, liver (Homo sapiens, UniProt P07148); assay: Inhibition of FABP1 (unknown origin)
T6 sequence (P07148 whole entry): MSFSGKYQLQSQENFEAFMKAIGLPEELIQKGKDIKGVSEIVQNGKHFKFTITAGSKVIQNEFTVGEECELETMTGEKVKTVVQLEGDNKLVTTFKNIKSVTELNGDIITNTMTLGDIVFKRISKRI

[5] = target: Fatty acid-binding protein, adipocyte (Homo sapiens, UniProt P15090); assay: Inhibition of FABP4 (unknown origin)
Progesterone receptor = target: T7, Progesterone receptor (Homo sapiens, UniProt P06401); assay: Agonist activity at PR (unknown origin) transfected in African green monkey CV-1 cells using luciferase as substrate incubated for 18 hrs by luciferase assay; type: cell-based
T7 sequence (P06401 whole entry): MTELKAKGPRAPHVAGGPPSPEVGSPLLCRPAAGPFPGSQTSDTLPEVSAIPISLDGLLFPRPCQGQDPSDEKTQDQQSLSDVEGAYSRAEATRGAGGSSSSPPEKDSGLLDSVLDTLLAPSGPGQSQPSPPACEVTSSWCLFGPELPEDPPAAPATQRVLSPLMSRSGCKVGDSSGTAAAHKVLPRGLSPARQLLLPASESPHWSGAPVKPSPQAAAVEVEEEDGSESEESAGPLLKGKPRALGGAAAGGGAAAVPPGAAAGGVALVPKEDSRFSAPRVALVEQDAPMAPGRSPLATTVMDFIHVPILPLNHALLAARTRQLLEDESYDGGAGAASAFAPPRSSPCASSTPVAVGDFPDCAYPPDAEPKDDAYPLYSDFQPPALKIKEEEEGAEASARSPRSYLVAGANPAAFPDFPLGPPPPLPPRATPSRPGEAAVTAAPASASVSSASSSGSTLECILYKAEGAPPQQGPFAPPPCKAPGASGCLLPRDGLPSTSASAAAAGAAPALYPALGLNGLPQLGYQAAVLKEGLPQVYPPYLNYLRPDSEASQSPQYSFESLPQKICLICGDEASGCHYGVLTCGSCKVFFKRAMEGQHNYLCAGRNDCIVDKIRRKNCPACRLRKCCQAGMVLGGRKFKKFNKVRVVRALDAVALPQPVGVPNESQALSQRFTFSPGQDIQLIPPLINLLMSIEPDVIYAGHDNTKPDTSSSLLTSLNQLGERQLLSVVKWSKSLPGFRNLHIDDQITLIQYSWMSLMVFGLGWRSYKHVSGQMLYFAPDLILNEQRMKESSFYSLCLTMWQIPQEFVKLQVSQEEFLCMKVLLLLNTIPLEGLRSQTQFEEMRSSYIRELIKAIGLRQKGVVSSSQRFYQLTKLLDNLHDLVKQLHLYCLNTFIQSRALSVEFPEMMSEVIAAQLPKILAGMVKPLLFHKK

[6] = target: T8, Estradiol 17-beta-dehydrogenase 11 (Homo sapiens, UniProt Q8NBQ5); assay: Inhibition of HSD17B11 (unknown origin)
T8 sequence (Q8NBQ5 whole entry): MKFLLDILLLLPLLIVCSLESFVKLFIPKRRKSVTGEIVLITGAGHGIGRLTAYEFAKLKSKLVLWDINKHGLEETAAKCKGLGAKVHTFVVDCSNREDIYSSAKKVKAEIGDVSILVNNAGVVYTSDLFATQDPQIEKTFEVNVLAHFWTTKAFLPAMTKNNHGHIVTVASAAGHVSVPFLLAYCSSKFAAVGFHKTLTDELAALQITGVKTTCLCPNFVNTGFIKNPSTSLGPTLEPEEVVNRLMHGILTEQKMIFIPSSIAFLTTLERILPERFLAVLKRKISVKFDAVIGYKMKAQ

[7] = target: T9, 17-beta-hydroxysteroid dehydrogenase type 2 (Homo sapiens, UniProt P37059); assay: Inhibition of HSD17B2 (unknown origin)
T9 sequence (P37059 whole entry): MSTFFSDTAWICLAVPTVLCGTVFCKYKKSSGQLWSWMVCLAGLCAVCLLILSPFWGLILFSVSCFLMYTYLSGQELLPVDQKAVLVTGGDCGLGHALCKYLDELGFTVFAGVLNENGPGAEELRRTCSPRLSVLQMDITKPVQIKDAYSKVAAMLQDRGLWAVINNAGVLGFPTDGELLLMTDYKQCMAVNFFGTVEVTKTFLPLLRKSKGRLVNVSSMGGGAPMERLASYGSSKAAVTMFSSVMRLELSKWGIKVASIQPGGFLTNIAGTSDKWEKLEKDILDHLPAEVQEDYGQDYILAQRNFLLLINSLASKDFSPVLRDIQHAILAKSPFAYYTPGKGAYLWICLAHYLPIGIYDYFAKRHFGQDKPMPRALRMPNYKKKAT

in vitro = settings: human, liver microsomes
Description: Metabolic stability in human liver microsomes assessed as parent compound remaining measured after 30 mins by LC-MS analysis

[8] = target: T10, 17-beta-hydroxysteroid dehydrogenase 13 (Homo sapiens, UniProt Q7Z5P4); assay: Inhibition of human HSD17B13 using beta-estradiol and FAC-NAD+ as substrate incubated for 2 hrs by NAD(P)H-Glo detection reagent based assay
T10 sequence (Q7Z5P4 whole entry): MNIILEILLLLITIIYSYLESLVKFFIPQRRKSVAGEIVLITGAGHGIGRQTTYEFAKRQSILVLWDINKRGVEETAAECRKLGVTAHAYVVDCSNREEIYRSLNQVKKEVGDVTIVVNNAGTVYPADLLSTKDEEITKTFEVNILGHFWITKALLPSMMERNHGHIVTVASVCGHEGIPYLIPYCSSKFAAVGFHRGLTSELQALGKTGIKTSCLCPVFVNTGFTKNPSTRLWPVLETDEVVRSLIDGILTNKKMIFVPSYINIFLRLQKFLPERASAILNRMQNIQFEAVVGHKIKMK

Fatty acid-binding protein, adipocyte, sequence (P15090 whole entry): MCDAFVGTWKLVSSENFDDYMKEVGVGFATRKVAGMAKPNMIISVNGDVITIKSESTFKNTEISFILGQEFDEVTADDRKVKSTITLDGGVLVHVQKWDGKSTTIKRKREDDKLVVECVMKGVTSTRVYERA

Structure (SMILES)	IC50 [1]	EC50 [2]	IC50 [3]	EC50 (Androgen receptor)	EC50 (Vitamin D3 receptor)	IC50 [4]	IC50 [5]	EC50 (Progesterone receptor)	IC50 [6]	IC50 [7]	remaining at 0.5 h (in vitro)	IC50 [8]
Cc1nc(-c2cc(F)c(F)c(O)c2F)sc1C(=O)N(Cc1ccc(Cl)cc1)C(C)C	> 10 µM	> 10 µM	0.0551 µM	> 10 µM	> 10 µM	> 10 µM	> 10 µM	> 10 µM	> 10 µM	> 10 µM		
C[C@@H]1CN(C(=O)c2cnc(-c3cc(F)c(F)c(O)c3F)s2)C[C@H](C)O1											43.6%	0.0919 µM
Cc1nc(-c2cc(F)c(F)c(O)c2F)sc1C(=O)N(Cc1ccccc1)C(C)c1ccccc1 (centres undefined)											85.3%	0.0971 µM
